Results as given in patent publication US20030215529A1, “Composition and pharmaceutical preparation containing same for the treatment of herpes and related viral infections” (Dalhousie University, priority 1998, published 2003).
≈ marks a conversion by molar mass, not a printed value.

Experiments:
HSV-1, Strain no. SM44 = assay: HSV-1 skin lesion model in guinea pigs; type: in vivo, guinea pig; details: for Extent of Skin Pathological Changes EPC (Mean ± SD) / Inhibition rate IR: Acyclovir cream 3 g %
From the text: Material. […] Virus is Herpes simplex type 1 (HSV-1, Strain no. SM44), imported from The American Type Culture Collection. The virus strain was proliferated and preserved by the Department of Virological Diagnosis, Institution of Virology, Chinese Preventative Medical Academy. “Bunched needle” refers to seven individual needles (size No. 7) bunched together as one bunch and seven bunches were put together as one “Bunched needle”. Other related apparatuses: All other apparatuses and reagents were provided by the Department of Virological Diagnosis, Chinese Preventative Medical Academy.
Animals: Guinea pigs, half male and half female, 200-250 grams (animal license no. YDHZ SCXK11-00-0006), supplied by the Animal Center of the Chinese Medical Academy and Peking Union Medical College.
HSV-1 cutaneous lesion in guinea pig. The animals were grouped in 5. Animals within each group will be the same gender and have similar body weight. The hair was removed from dorsal side of the animal and the skin was abraded with needles as described above. The entire abraded area was infected with 150 μl of HSV-1 stock suspension.
Typical herpes lesions appeared on the infected area on the 4th day of infection. The extent of pathological changes was scored as described below. […] The amount of cream given to each animal was 1.5 gram per dose twice daily for a six-day duration.
Daily records of the pathological changes infected area were made according to the following criteria:
When the skin lesions developed up to ¼ of the total area, the pathological changes were scored as 1.0-1.6;
When the skin lesions developed on 2/4 of the total area, the pathological changes were scored as 1.7-2.4;
When the skin developed on ¾ of the total area, the pathological changes were scored as 2.5-3.2;
When the skin lesions developed 4/4 of the total areas, the pathological changes were scored as 3.3-4.0;
When the skin herpes scars developed up to ¼ of the total areas, the pathological changes were scored as 0.9-1.0;
When the skin herpes scars were up to 2/4 of the total areas, the pathological changes were scored as 0.7-0.8;
When the skin herpes scars were up to ¾ of the total areas, the pathological changes were scored as 0.5-0.6;
When the skin herpes scars were up to 4/4 of the total areas, the pathological changes were scored as 0.2-0.4;
When the skin herpes scars were all detached and lesions healed, the pathological changes were scored as 0.

HSV-2, Strain no. 333 [1] = assay: HSV-2 mouse vaginal infection model, survival; type: in vivo, BALB/c mice; details: 3% Acyclovir cream
Experimental: (Batch no. 200205), provided by the Department of Biology, the Chinese University of Hong Kong, Hong Kong. […] Virus is Herpes simplex type II (HSV-2, Strain no. 333, batch no. 200104010), provided by the Department of Virological Diagnosis, Institution of Virology, Chinese Preventative Medical Academy. Needles for vaginal tract infection (size no. of 12) were prepared by the Department of Virological Diagnosis, Chinese Preventative Medical Academy. African green monkey kidney cells (Vero cells) were provided by the Department of Virological Diagnosis, Chinese Preventative Medical Academy. Physiological saline and cell culture medium was provided by the Department of Virological Diagnosis, Chinese Preventative Medical Academy. Inverted microscope was provided by the Department of Virological Diagnosis, Chinese Preventative Medical Academy. Carbon dioxide incubator was provided by the Department of Virological Diagnosis, Chinese Preventative Medical Academy. And other related apparatuses: provided by the Department of Virological Diagnosis, Chinese Preventative Medical Academy.
Animals: BALB/c mice, female, body weight range of 18-20 grams. Animal license no. YDHZ 01-3003, supplied by the Animal Center of the Chinese Medical Academy and Peking Union Medical College.
1. Target of the experiments: The mice could develop viral vaginitis following infection with HSV-2. […] Statistical analysis, t values and p values, was calculated in comparison with the virus control group. Efficacy of the testing samples will be evaluated on the basis of statistical calculation.
2. […] The number of animals per group was 10. Ten additional animals that were not infected with HSV-2 and received no treatment served as the uninfected control group.
Treatment began on day 3 post-infection. This was achieved by applying the cream to the vaginal tract with cotton swabs. The creams were given at a dose of 2 mg per mouse twice daily for a six-day duration. Mortality and the number of days for lethality to occur were recorded. The experiment was repeated twice. The protection rates and life span extension rates were calculated. The efficacy of testing agents were judged in comparison with the […] on the basis of the calculated t values and p values.
The survival rate and number of days for lethality to occur were recorded. The latter was expressed as the average life span in days.

HSV-2, Strain no. 333 [2] = assay: Recovery of HSV-2 from vaginal samples of infected mice (CPE on Vero cells); type: in vivo, BALB/c mice; details: Acyclovir cream 3 g %
HSV-1 [3] = details: Xu et al., Heterocycles 1994; cited from earlier work
HSV-induced cell fusion = details: Srinivas et al.; cited from earlier work
HSV-1 [4] = assay: Plaque reduction assay (Example 3), HSV-1 on Vero cells; type: cell-based, herpes simplex virus type 1
[5] = tested on: HSV-1 (acyclovir-sensitive strain, BW-S strain); assay: Plaque reduction assay (Example 6), HSV-1 BW-S strain on Vero cells; type: cell-based, herpes simplex virus type 1
[6] = tested on: HSV-1 strain Delta gC2-3 (glycoprotein C deficient); assay: Plaque reduction assay, glycoprotein C deficient HSV-1; type: cell-based, herpes simplex virus type 1; details: strain Delta gC2-3, plaque reduction assay
HSV-1 strain #15577 [7] = assay: Binding experiment: residual infectious virus after incubation with sample, strain #15577; type: cell-based, herpes simplex virus type 1; details: 2 mg heparin with 10^5 pfu, 36° C., 1 h; water control = 100%
Experimental: (§1) The mixture was serially diluted in medium and the number of residual infectious virus was determined by the plaque assay. The number of plaque developed in the water treatment control was taken as 100%.

HSV-1 strain Delta gC2-3 = assay: Binding experiment: residual infectious virus after incubation with sample, Delta gC2-3; type: cell-based, herpes simplex virus type 1; details: 2 mg heparin with 10^5 pfu, 36° C., 1 h; water control = 100%
Experimental: as §1

HSV-1 strain #15577 [8] = assay: Binding competition experiment, strain #15577; type: cell-based, herpes simplex virus type 1; details: mixed with virus and used immediately
Experimental: (§2) The anti-herpes effect of sodium heparin was further investigated by a binding competition experiment. In this experiment, 0.5 ml samples of HSV-1 (about 100 pfu) were mixed with 0.5 ml of sodium heparin at different concentrations. The mixtures were immediately used to infect Vero cells at 37° C. for 1 h. Following the incubation, the number of plaques were determined in the plaque assay. […] At 1 mg/ml heparin, the % plaque inhibition was 92%. Similar results were obtained when the gC-deficient HSV-1, Delta gC2-3, was used. In which case, the % plaque inhibition for 62.5 μg/ml and 1 mg/ml heparin were 77% and 86%, respectively.

[9] = tested on: gC-deficient HSV-1, Delta gC2-3; assay: Binding competition experiment, Delta gC2-3; type: cell-based, herpes simplex virus type 1; details: mixed with virus and used immediately
Experimental: as §2

wild-type HSV-1 = assay: Penetration assay, wild-type HSV-1 into Vero cells; type: cell-based, herpes simplex virus type 1
Experimental: (§3) Penetration Assay. The penetration assay was conducted using the method as described in Example with modifications. Confluent Vero cell monolayers in 25 ml tissue culture flasks were chilled to 4° C. for 45 mm. The monolayers were infected with 300 pfu of HSV-1 in 2.5 ml of cold MEM Earle's medium. Attachment was synchronized for 1 h at 4° C. The flasks were washed twice with 4 ml of cold PBS to remove any unbound virus. The monolayers were covered with 5 ml of maintenance medium and shifted to 37° C. […] The flasks were incubated at 37° C. for 90 min, after which the monolayers were washed twice with 4 ml of PBS and covered with 10 ml of 0.8% methylcellulose in maintenance medium. Plaque formation was allowed at 37° C. for 72 h. For the citrate buffer treated group, 3 ml of buffer was added to the monolayers for 1 min. The cells were washed twice with PBS, after which medium was added to allow plaque formation. For the no treatment control group, following medium removal, the monolayers were washed twice with PBS and medium added to allow plaque formation.
Citrate buffer at pH 3 represents the penetration kinetics of HSV into Vero cells. The low pH removes adherent virus particles from the cell surface (i.e., those that have not yet penetrated). At time 20 min, all the wild type virus particles have penetrated and can not be removed by the low pH buffer (Table 6). […] This reduction is less obvious than the heparin treatment. At time 0 min, only 19% of the virus could penetrate and form plaque as compared to 49% in the heparin treatment.

[10] = tested on: glycoprotein C-deficient mutant HSV-1; assay: Penetration assay, gC-deficient HSV-1 mutant into Vero cells; type: cell-based, herpes simplex virus type 1
Experimental: as §3
However, by 60 min, all the virus particles appeared to have penetrated.

[11] = Tabba et al.; cited from earlier work
[12] = Heparin 1000 μg/ml added at Time 0 min
[13] = Heparin 1000 μg/ml added at Time 10 min
[14] = Heparin 1000 μg/ml added at Time 20 min

With Nc1nc2c(ncn2COCCO)c(=O)[nH]1 [Acyclovir] the “Extent of Skin Pathological Changes EPC (Mean ± SD)” value (HSV-1, Strain no. SM44; Day 4 (start of treatment)) was 3.87 ± 0.12 cm^2, the “Inhibition rate IR” value (HSV-1, Strain no. SM44; Day 4 (start of treatment)) was 0% and the “Extent of Skin Pathological Changes EPC (Mean ± SD)” value (HSV-1, Strain no. SM44; Day 5) was 3.54 ± 0.22 cm^2. The “Inhibition rate IR” value (HSV-1, Strain no. SM44; Day 5) was 11%, the “Extent of Skin Pathological Changes EPC (Mean ± SD)” value (HSV-1, Strain no. SM44; Day 6) was 2.77 ± 0.40 cm^2 and the “Inhibition rate IR” value (HSV-1, Strain no. SM44; Day 6) was 30%. For the same compound, the “Extent of Skin Pathological Changes EPC (Mean ± SD)” value (HSV-1, Strain no. SM44; Day 7) was 2.02 ± 0.30 cm^2, the “Inhibition rate IR” value (HSV-1, Strain no. SM44; Day 7) was 44% and the “Extent of Skin Pathological Changes EPC (Mean ± SD)” value (HSV-1, Strain no. SM44; Day 8) was 1.21 ± 0.38 cm^2. The “Inhibition rate IR” value (HSV-1, Strain no. SM44; Day 8) was 63%, the “Extent of Skin Pathological Changes EPC (Mean ± SD)” value (HSV-1, Strain no. SM44; Day 9) was 0.82 ± 0.16 cm^2 and the “Inhibition rate IR” value (HSV-1, Strain no. SM44; Day 9) was 71%. For the same compound, the “Extent of Skin Pathological Changes EPC (Mean ± SD)” value (HSV-1, Strain no. SM44; Day 10) was 0.38 ± 0.18 cm^2, the “Inhibition rate IR” value (HSV-1, Strain no. SM44; Day 10) was 84% and the “Extent of Skin Pathological Changes EPC (Mean ± SD)” value (HSV-1, Strain no. SM44; Day 11) was 0.09 ± 0.19 cm^2. For the same compound, the “Inhibition rate IR” value (HSV-1, Strain no. SM44; Day 11) was 96%, the “signs of paralysis in lower limbs” value (HSV-1, Strain no. SM44; cream-treated groups, seen in some animals of the virus control group) was “not observed” and the “Life Span Extension Rate” value (HSV-2, Strain no. 333 [1]) was 81.2%. For the same compound, the “Protection Rate” value (HSV-2, Strain no. 333 [1]) was 78.6%, the Survival (HSV-2, Strain no. 333 [1]) was 80% and the No. of death (HSV-2, Strain no. 333 [1]; 30 animals) was 6. The No. of survival (HSV-2, Strain no. 333 [1]; 30 animals) was 24, the “Life Span Extension Rate” value (HSV-2, Strain no. 333 [1]; listed as acyclovir) was 81.3% and the “Therapeutic Rate” value (HSV-2, Strain no. 333 [2]) was 71%. For the same compound, the “No. of samples containing HSV-2 After Treatment” value (HSV-2, Strain no. 333 [2]; 30 vaginal samples) was 8 and the “No. of samples containing HSV-2 Before Treatment” value (HSV-2, Strain no. 333 [2]; 30 vaginal samples) was 30.

For O=Cc1cc(O)c(O)c(O)c1 [gallic aldehyde], the “IC50 against HSV-1” value (HSV-1 [3]) is given as 12.5 µg/mL (≈ 81.1 µM).

In the case of “apolipoprotein A-I: high density serum apolipoprotein A-I”, the “concentration inhibiting HSV-induced cell fusion” value (HSV-induced cell fusion) is listed as 1 µM.

In the case of geponin, the “IC50 against HSV-1” value (HSV-1 [3]) is listed as 25 µg/mL.

With heparin the IC50 (HSV-1 [4]; HSV-1 strain #15577, plaque reduction assay) was 750 µg/mL, the IC50 values (HSV-1 [4]; plaque reduction assay, added 1 h after virus, strains 15577 and Delta gC2-3) was 750 to 1000 µg/mL and the “anti-HSV-1 IC50” value [5] was 300 µg/mL. For the same compound, the IC50 [6] was greater than 1000 µg/mL, the “original virus still infectious” value (HSV-1 strain #15577 [7]) was 30% and the “original virus still infectious” value (HSV-1 strain Delta gC2-3) was 42%. The “% plaque inhibition” value (HSV-1 strain #15577 [8]; 62.5 μg/ml) was 88%, the “% plaque inhibition” value (HSV-1 strain #15577 [8]; 1 mg/ml) was 92% and the “% plaque inhibition” value ([9]; 62.5 μg/ml) was 77%. The “% plaque inhibition” value ([9]; 1 mg/ml) was 86%, the “% Plaques” value (wild-type HSV-1; [12]) was 49% and the “% Plaques” value (wild-type HSV-1; Heparin 1000 μg/ml added at Time 2 min) was 57%. For the same compound, the “% Plaques” value (wild-type HSV-1; Heparin 1000 μg/ml added at Time 4 min) was 88%, the “% Plaques” value (wild-type HSV-1; Heparin 1000 μg/ml added at Time 6 min) was 86% and the “% Plaques” value (wild-type HSV-1; [13]) was 100%. For the same compound, the “% Plaques” value (wild-type HSV-1; Heparin 1000 μg/ml added at Time 15 min) was 100%, the “% Plaques” value (wild-type HSV-1; [14]) was 100% and the “% Plaques” value [10, 12] was 62%. The “% Plaques” value [10, 13] was 90%, the “% Plaques” value [10, 14] was 100% and the “% Plaques” value ([10]; Heparin 1000 μg/ml added at Time 30 min) was 100%. For the same compound, the “% Plaques” value ([10]; Heparin 1000 μg/ml added at Time 40 min) was 100%, the “% Plaques” value ([10]; Heparin 1000 μg/ml added at Time 50 min) was 84% and the “% Plaques” value ([10]; Heparin 1000 μg/ml added at Time 60 min) was 100%. The “effects on the penetration of the gC-deficient mutant into Vero cells” value ([10]; heparin 1000 μg/ml, in words) was “no apparent effects”.

For prunellin, the “pH in aqueous solution” value [11] is given as 7.4.
